Molecular target: T1, FTSJ1 (Homo sapiens, UniProt Q9UET6)
T1 construct: host or cells: HeLa
T1 sequence (Q9UET6 1-329): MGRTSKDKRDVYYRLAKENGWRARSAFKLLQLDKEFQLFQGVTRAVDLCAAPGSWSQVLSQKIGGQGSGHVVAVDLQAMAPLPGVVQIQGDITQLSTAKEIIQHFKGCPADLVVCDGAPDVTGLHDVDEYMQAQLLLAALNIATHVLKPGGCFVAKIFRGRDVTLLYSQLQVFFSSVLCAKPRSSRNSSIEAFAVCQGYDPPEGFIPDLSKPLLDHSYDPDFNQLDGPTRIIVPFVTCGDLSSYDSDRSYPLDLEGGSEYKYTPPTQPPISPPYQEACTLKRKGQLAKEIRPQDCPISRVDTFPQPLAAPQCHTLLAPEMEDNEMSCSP
Test: UGA readthrough luciferase assay with FTSJ1 overexpression
Format: cell-based
Source text: Firefly luciferase from HEK293FT cells transfected with the Fluc-int-UGA construct was immunoprecipitated and digested with trypsin. The MS/MS spectrum of the peptide containing the PTC position and the sequence determination are shown. The upper red and blue sequences indicate the amino acids validated, respectively, by detection of Nter and Cter peptide fragments (b and y ion series). Peptide fragments y6 and y7 clearly identify tryptophan (W) at the PTC position. The black peaks correspond to non-attributed mass-to-charge ratio (m/z) values. […] Readthrough efficiency was determined by measuring luciferase activity in HeLa cells co-transfected with the firefly luciferase construct described in Fig. 1b and with increasing amounts of an expression vector for either FTSJ1 or CTU1 (0.5, 1, or 2 µg). The empty expression vector (E.v.) was used as control. […] The experiment was performed twice and the results of both experiments (Exp1 and Exp2) are shown. c Western blot analysis of FTSJ1 and CTU1. d 2′-O-methylation analysis of tRNA^Trp, tRNA^SER, and tRNA^GLN by RiboMethSeq. […] A molecular weight marker is indicated to the left of each gel. p-values (p) were calculated using Student’s t-test. Source data are provided as a Source Data file.
Among the enzymes modifying tRNAs liable to recognize a stop codon by extended wobbling, human FTSJ1 (TRM7 in yeast) exclusively modifies tRNAs involved in UGA readthrough. In addition to other tRNA targets, FTSJ1 methylates the cytosine at position 34 of tRNA^Trp. Inhibition of this modification could increase the capacity of tRNA^Trp to misdecode and recognize the UGA stop codon. […] FTSJ1 and CTU1 overexpression were assessed by western-blot analysis (Fig. 5c).

CN[C@@H]1[C@@H](O)[C@@H](O[C@@H]2[C@@H](O)[C@H](O[C@H]3O[C@H]([C@@H](C)O)[C@@H](O)[C@H](O)[C@H]3N)[C@@H](N)C[C@H]2N)OC[C@]1(C)O [G418, reference compound]
luciferase activity, average (0.5µg FTSJ1, 25µM): 2984.12
luciferase activity, exp1 (0.5µg FTSJ1, 25µM): 2303.5
luciferase activity, exp1*1,5 (0.5µg FTSJ1, 25µM): 3455.25
luciferase activity, exp2 (0.5µg FTSJ1, 25µM): 2513
luciferase activity, average (0.5µg FTSJ1, 600µM): 3518
luciferase activity, exp1 (0.5µg FTSJ1, 600µM): 2352
luciferase activity, exp1*1,5 (0.5µg FTSJ1, 600µM): 3528
luciferase activity, exp2 (0.5µg FTSJ1, 600µM): 3508
luciferase activity, average (1µg FTSJ1, 25µM): 2661.5
luciferase activity, exp1 (1µg FTSJ1, 25µM): 1562
luciferase activity, exp1*1,5 (1µg FTSJ1, 25µM): 2343
luciferase activity, exp2 (1µg FTSJ1, 25µM): 2980
luciferase activity, average (1µg FTSJ1, 600µM): 3066.25
luciferase activity, exp1 (1µg FTSJ1, 600µM): 1933
luciferase activity, exp1*1,5 (1µg FTSJ1, 600µM): 2899.5
luciferase activity, exp2 (1µg FTSJ1, 600µM): 3233
luciferase activity, average (2µg FTSJ1, 25µM): 2020.12
luciferase activity, exp1 (2µg FTSJ1, 25µM): 1256.5
luciferase activity, exp1*1,5 (2µg FTSJ1, 25µM): 1884.75
luciferase activity, exp2 (2µg FTSJ1, 25µM): 2155.5
luciferase activity, average (2µg FTSJ1, 600µM): 2062.5
luciferase activity, exp1 (2µg FTSJ1, 600µM): 1540
luciferase activity, exp1*1,5 (2µg FTSJ1, 600µM): 2310
luciferase activity, exp2 (2µg FTSJ1, 600µM): 1815

Nc1nc(N)c2[nH]cnc2n1 [DAP, 2,6-diaminopurine]
luciferase activity, average (0.5µg FTSJ1, 0.39µM): 904.125
luciferase activity, exp1 (0.5µg FTSJ1, 0.39µM): 632.5
luciferase activity, exp1*1,5 (0.5µg FTSJ1, 0.39µM): 948.75
luciferase activity, exp2 (0.5µg FTSJ1, 0.39µM): 859.5
luciferase activity, average (0.5µg FTSJ1, 0.78µM): 1247.62
luciferase activity, exp1 (0.5µg FTSJ1, 0.78µM): 776.5
luciferase activity, exp1*1,5 (0.5µg FTSJ1, 0.78µM): 1164.75
luciferase activity, exp2 (0.5µg FTSJ1, 0.78µM): 1330.5
luciferase activity, average (0.5µg FTSJ1, 1.56µM): 1901
luciferase activity, exp1 (0.5µg FTSJ1, 1.56µM): 1287
luciferase activity, exp1*1,5 (0.5µg FTSJ1, 1.56µM): 1930.5
luciferase activity, exp2 (0.5µg FTSJ1, 1.56µM): 1871.5
luciferase activity, average (0.5µg FTSJ1, 6.25µM): 9598.75
luciferase activity, exp1 (0.5µg FTSJ1, 6.25µM): 3517
luciferase activity, exp1*1,5 (0.5µg FTSJ1, 6.25µM): 5275.5
luciferase activity, exp2 (0.5µg FTSJ1, 6.25µM): 13922
luciferase activity, average (0.5µg FTSJ1, 25µM): 34831.4
luciferase activity, exp1 (0.5µg FTSJ1, 25µM): 13760.5
luciferase activity, exp1*1,5 (0.5µg FTSJ1, 25µM): 20640.8
luciferase activity, exp2 (0.5µg FTSJ1, 25µM): 49022
luciferase activity, average (0.5µg FTSJ1, 100µM): 81250
luciferase activity, exp1 (0.5µg FTSJ1, 100µM): 48276
luciferase activity, exp1*1,5 (0.5µg FTSJ1, 100µM): 72414
luciferase activity, exp2 (0.5µg FTSJ1, 100µM): 90086
luciferase activity, average (0.5µg FTSJ1, 300µM): 102352
luciferase activity, exp1 (0.5µg FTSJ1, 300µM): 48428.5
luciferase activity, exp1*1,5 (0.5µg FTSJ1, 300µM): 72642.8
luciferase activity, exp2 (0.5µg FTSJ1, 300µM): 132062
luciferase activity, average (0.5µg FTSJ1, 600µM): 91333.2
luciferase activity, exp1 (0.5µg FTSJ1, 600µM): 34760
luciferase activity, exp1*1,5 (0.5µg FTSJ1, 600µM): 52140
luciferase activity, exp2 (0.5µg FTSJ1, 600µM): 130526
luciferase activity, average (1µg FTSJ1, 0.39µM): 825.625
luciferase activity, exp1 (1µg FTSJ1, 0.39µM): 545.5
luciferase activity, exp1*1,5 (1µg FTSJ1, 0.39µM): 818.25
luciferase activity, exp2 (1µg FTSJ1, 0.39µM): 833
luciferase activity, average (1µg FTSJ1, 0.78µM): 1113.62
luciferase activity, exp1 (1µg FTSJ1, 0.78µM): 667.5
luciferase activity, exp1*1,5 (1µg FTSJ1, 0.78µM): 1001.25
luciferase activity, exp2 (1µg FTSJ1, 0.78µM): 1226
luciferase activity, average (1µg FTSJ1, 1.56µM): 1547.75
luciferase activity, exp1 (1µg FTSJ1, 1.56µM): 877
luciferase activity, exp1*1,5 (1µg FTSJ1, 1.56µM): 1315.5
luciferase activity, exp2 (1µg FTSJ1, 1.56µM): 1780
luciferase activity, average (1µg FTSJ1, 6.25µM): 5589
luciferase activity, exp1 (1µg FTSJ1, 6.25µM): 2330
luciferase activity, exp1*1,5 (1µg FTSJ1, 6.25µM): 3495
luciferase activity, exp2 (1µg FTSJ1, 6.25µM): 7683
luciferase activity, average (1µg FTSJ1, 25µM): 18207.6
luciferase activity, exp1 (1µg FTSJ1, 25µM): 6784.5
luciferase activity, exp1*1,5 (1µg FTSJ1, 25µM): 10176.8
luciferase activity, exp2 (1µg FTSJ1, 25µM): 26238.5
luciferase activity, average (1µg FTSJ1, 100µM): 59739.5
luciferase activity, exp1 (1µg FTSJ1, 100µM): 25052
luciferase activity, exp1*1,5 (1µg FTSJ1, 100µM): 37578
luciferase activity, exp2 (1µg FTSJ1, 100µM): 81901
luciferase activity, average (1µg FTSJ1, 300µM): 78923.5
luciferase activity, exp1 (1µg FTSJ1, 300µM): 30654
luciferase activity, exp1*1,5 (1µg FTSJ1, 300µM): 45981
luciferase activity, exp2 (1µg FTSJ1, 300µM): 111866
luciferase activity, average (1µg FTSJ1, 600µM): 72130.6
luciferase activity, exp1 (1µg FTSJ1, 600µM): 22687.5
luciferase activity, exp1*1,5 (1µg FTSJ1, 600µM): 34031.2
luciferase activity, exp2 (1µg FTSJ1, 600µM): 110230
luciferase activity, average (2µg FTSJ1, 0.39µM): 748.25
luciferase activity, exp1 (2µg FTSJ1, 0.39µM): 541
luciferase activity, exp1*1,5 (2µg FTSJ1, 0.39µM): 811.5
luciferase activity, exp2 (2µg FTSJ1, 0.39µM): 685
luciferase activity, average (2µg FTSJ1, 0.78µM): 885.625
luciferase activity, exp1 (2µg FTSJ1, 0.78µM): 619.5
luciferase activity, exp1*1,5 (2µg FTSJ1, 0.78µM): 929.25
luciferase activity, exp2 (2µg FTSJ1, 0.78µM): 842
luciferase activity, average (2µg FTSJ1, 1.56µM): 1120.12
luciferase activity, exp1 (2µg FTSJ1, 1.56µM): 798.5
luciferase activity, exp1*1,5 (2µg FTSJ1, 1.56µM): 1197.75
luciferase activity, exp2 (2µg FTSJ1, 1.56µM): 1042.5
luciferase activity, average (2µg FTSJ1, 6.25µM): 2590.25
luciferase activity, exp1 (2µg FTSJ1, 6.25µM): 1505
luciferase activity, exp1*1,5 (2µg FTSJ1, 6.25µM): 2257.5
luciferase activity, exp2 (2µg FTSJ1, 6.25µM): 2923
luciferase activity, average (2µg FTSJ1, 25µM): 6098.62
luciferase activity, exp1 (2µg FTSJ1, 25µM): 3067.5
luciferase activity, exp1*1,5 (2µg FTSJ1, 25µM): 4601.25
luciferase activity, exp2 (2µg FTSJ1, 25µM): 7596
luciferase activity, average (2µg FTSJ1, 100µM): 13866.6
luciferase activity, exp1 (2µg FTSJ1, 100µM): 8407.5
luciferase activity, exp1*1,5 (2µg FTSJ1, 100µM): 12611.2
luciferase activity, exp2 (2µg FTSJ1, 100µM): 15122
luciferase activity, average (2µg FTSJ1, 300µM): 32953.2
luciferase activity, exp1 (2µg FTSJ1, 300µM): 15279
luciferase activity, exp1*1,5 (2µg FTSJ1, 300µM): 22918.5
luciferase activity, exp2 (2µg FTSJ1, 300µM): 42988
luciferase activity, average (2µg FTSJ1, 600µM): 35768.5
luciferase activity, exp1 (2µg FTSJ1, 600µM): 13538
luciferase activity, exp1*1,5 (2µg FTSJ1, 600µM): 20307
luciferase activity, exp2 (2µg FTSJ1, 600µM): 51230
Effect of FTSJ1 overexpression on DAP-promoted readthrough (HeLa, pFluc-int-UGA): strongly reduce DAP-promoted readthrough
